Drawing on ChEMBL document CHEMBL5356967, “Design, synthesis, evaluation and optimization of novel azole analogues as potent antifungal agents” (Bioorg Med Chem, 2024), this text covers MIC80 for 17 molecules.

Format in all cases: functional
For test [1], the system named is Candida albicans. Put plainly: Antifungal activity against Candida albicans SC5314 assessed as inhibition of fungal growth incubated for 24 hrs by broth microdilution method. Background: Dilution methods test growth across graded concentrations, often in twofold steps.
For test [2], the system named is Candida tropicalis. Put plainly: Antifungal activity against Candida tropicalis 0370354 assessed as inhibition of fungal growth incubated for 24 hrs by broth microdilution method.
Test [3] concerns Candida parapsilosis. The experiment in a line: Antifungal activity against Candida parapsilosis 0306392 assessed as inhibition of fungal growth incubated for 24 hrs by broth microdilution method. The note with it: Lodderomyces parapsilosis.
Test [4] relates to Candida albicans. The experiment in a line: Antifungal activity against Candida albicans Y0109 assessed as inhibition of fungal growth incubated for 24 hrs by broth microdilution method.
Test [5] relates to Cryptococcus neoformans. The experiment in a line: Antifungal activity against Cryptococcus neoformans ATCCBLS108 assessed as inhibition of fungal growth incubated for 72 hrs by broth microdilution method.
The subject of test [6] is Aspergillus fumigatus. The experiment in a line: Antifungal activity against Aspergillus fumigatus 0504656 assessed as inhibition of fungal growth incubated for 48 hrs by broth microdilution method.
For test [7], the system named is Nannizzia gypsea. The experiment in a line: Antifungal activity against Microsporum gypseum 0310388 assessed as inhibition of fungal growth incubated for 24 hrs by broth microdilution method.
Test [8] deals with Trichophyton rubrum. The experiment in a line: Antifungal activity against Trichophyton rubrum 0501124 assessed as inhibition of fungal growth incubated for 24 hrs by broth microdilution method.

For `Oc1ccc([C@@]2(Cn3ccnc3)OC[C@H](Cn3cc(COc4ccccc4)nn3)O2)c(F)c1` (mixture of isomers), the MIC80 (usually the lowest concentration that inhibits either 80% of growth or 80% of the strains tested, depending on the study) came out at 0.063 µg/mL in test [1]; 0.125 µg/mL in test [2]; 0.125 µg/mL in test [3]; 0.063 µg/mL in test [4]; 0.063 µg/mL in test [5]; 16 µg/mL in test [6]. The MIC80 in test [7] stood at 0.25 µg/mL; in test [8] it was 1 µg/mL.
`CNCCc1cn(C[C@H]2CO[C@](Cn3ccnc3)(c3ccc(O)cc3F)O2)nn1` (mixture of isomers): the MIC80 in test [1] was 0.125 µg/mL; in test [2], 0.25 µg/mL; in test [3], 0.25 µg/mL; in test [4], 0.063 µg/mL; in test [5], 0.125 µg/mL; in test [6], over 64 µg/mL. For the same molecule, the MIC80 in test [7] was 0.25 µg/mL; in test [8], 1 µg/mL.
`Oc1ccc([C@@]2(Cn3ccnc3)OC[C@H](Cn3cc(-c4ccccn4)nn3)O2)c(F)c1` (mixture of isomers): the MIC80 in test [1] was 0.25 µg/mL; in test [2], 4 µg/mL; in test [3] it was 0.25 µg/mL; in test [4] it was 0.063 µg/mL; in test [5], 0.125 µg/mL; in test [6] it was 16 µg/mL. Besides, the MIC80 in test [7] worked out at 0.125 µg/mL; in test [8], 4 µg/mL.
As for `CCCc1ccc(-c2cn(C[C@H]3CO[C@](Cn4ccnc4)(c4ccc(O)cc4F)O3)nn2)cc1` (mixture of isomers), the MIC80 is 0.125 µg/mL in test [1]; 4 µg/mL in test [2]; 2 µg/mL in test [3]; 0.063 µg/mL in test [4]; 0.25 µg/mL in test [5]; over 64 µg/mL in test [6]. The MIC80 in test [7] and in test [8] was 2 µg/mL in each case.
`Cc1ccc(-c2cn(C[C@H]3CO[C@](Cn4ccnc4)(c4ccc(O)cc4F)O3)nn2)cc1` (mixture of isomers): the MIC80 in test [1] is 0.063 µg/mL; in test [2], 0.25 µg/mL; in test [3] it was 2 µg/mL; in test [4], 0.063 µg/mL; in test [5], 2 µg/mL; in test [6], over 64 µg/mL. In addition, the MIC80 in test [7] and in test [8] was 4 µg/mL throughout.
For the molecule `Cc1cccc(-c2cn(C[C@H]3CO[C@](Cn4ccnc4)(c4ccc(O)cc4F)O3)nn2)c1` (mixture of isomers), the MIC80 in test [1] is 0.063 µg/mL; in test [2] it was 0.25 µg/mL; in test [3], 0.25 µg/mL; in test [4] it was 0.063 µg/mL; in test [5] it was 0.125 µg/mL; in test [6], over 64 µg/mL. Further, the MIC80 is 0.125 µg/mL in test [7] and 2 µg/mL in test [8].
Turning to `CC1CCN(CCc2cn(C[C@H]3CO[C@](Cn4ccnc4)(c4ccc(O)cc4F)O3)nn2)CC1` (mixture of isomers), the MIC80 was 0.016 µg/mL in test [1]; 0.25 µg/mL in test [2]; 0.125 µg/mL in test [3]; 0.063 µg/mL in test [4]; 0.063 µg/mL in test [5]; over 64 µg/mL in test [6]. The results for the MIC80 in test [7] and in test [8] were 0.25 µg/mL and 1 µg/mL, respectively.
On to `Oc1ccc([C@@]2(Cn3ccnc3)OC[C@H](Cn3cc(-c4ccccc4)nn3)O2)c(F)c1` (mixture of isomers), for which the MIC80 in test [1] was 0.125 µg/mL; in test [2] it was 0.5 µg/mL; in test [3], 0.125 µg/mL; in test [4], 0.063 µg/mL; in test [5], 0.125 µg/mL; in test [6], over 64 µg/mL. The MIC80 is 0.125 µg/mL in test [7] and 0.25 µg/mL in test [8].
Take `Oc1ccc([C@@]2(Cn3ccnc3)OC[C@H](Cn3cc(CCN4CCC(O)CC4)nn3)O2)c(F)c1` (mixture of isomers): the MIC80 is 0.016 µg/mL in test [1]; 0.25 µg/mL in test [2]; 0.125 µg/mL in test [3]; 0.063 µg/mL in test [4]; 0.125 µg/mL in test [5]; 16 µg/mL in test [6]. The MIC80 was 0.125 µg/mL in test [7] and 0.25 µg/mL in test [8].
In the case of `Oc1ccc([C@@]2(Cn3ccnc3)OC[C@H](Cn3cc(CCN4CCCC4)nn3)O2)c(F)c1` (mixture of isomers), the MIC80 in test [1] was determined as 0.063 µg/mL; in test [2], 0.25 µg/mL; in test [3], 0.125 µg/mL; in test [4] it was 0.063 µg/mL; in test [5] it was 0.063 µg/mL; in test [6], 16 µg/mL. The MIC80 in test [7] stood at 0.5 µg/mL; in test [8] it was 0.25 µg/mL.
On to `Oc1ccc([C@@]2(Cn3ccnc3)OC[C@H](Cn3cc(C(O)c4ccccc4)nn3)O2)c(F)c1` (mixture of isomers), for which the MIC80 is 0.125 µg/mL in test [1]; 0.125 µg/mL in test [2]; 0.125 µg/mL in test [3]; 0.063 µg/mL in test [4]; 0.063 µg/mL in test [5]; over 64 µg/mL in test [6]. Also, the values for the MIC80 in test [7] and in test [8] were 0.25 µg/mL and 1 µg/mL, respectively.
As to `Oc1ccc([C@@]2(Cn3ccnc3)OC[C@H](Cn3cc(-c4cccc(F)c4)nn3)O2)c(F)c1` (mixture of isomers), the MIC80 in test [1] is 0.125 µg/mL; in test [2] it was 1 µg/mL; in test [3], 0.125 µg/mL; in test [4] it was 0.063 µg/mL; in test [5], 1 µg/mL; in test [6], over 64 µg/mL. Moreover, the MIC80 in test [7] is 1 µg/mL; in test [8], 2 µg/mL.
Take `Oc1ccc([C@@]2(Cn3ccnc3)OC[C@H](Cn3cc(CCNC4CC4)nn3)O2)c(F)c1` (mixture of isomers): the MIC80 was 0.125 µg/mL in test [1]; 0.125 µg/mL in test [2]; 0.25 µg/mL in test [3]; 0.063 µg/mL in test [4]; 0.125 µg/mL in test [5]; over 64 µg/mL in test [6]. For the same molecule, the MIC80 stood at 0.25 µg/mL in test [7] and 0.125 µg/mL in test [8].
Consider `CC(C)(C)c1ccc(-c2cn(C[C@H]3CO[C@](Cn4ccnc4)(c4ccc(O)cc4F)O3)nn2)cc1` (mixture of isomers), for which the MIC80 in test [1] is 0.063 µg/mL; in test [2], 0.125 µg/mL; in test [3] it was 0.125 µg/mL; in test [4], 0.063 µg/mL; in test [5], 0.063 µg/mL; in test [6], over 64 µg/mL. The MIC80 in test [7] and in test [8] was 0.25 µg/mL in each case.
As for `Oc1ccc([C@@]2(Cn3ccnc3)OC[C@H](Cn3cc(-c4ccc(F)cc4)nn3)O2)c(F)c1` (mixture of isomers), the MIC80 in test [1] was 0.125 µg/mL; in test [2], 4 µg/mL; in test [3] it was 0.25 µg/mL; in test [4], 0.063 µg/mL; in test [5], 0.125 µg/mL; in test [6], over 64 µg/mL. Moreover, the MIC80 in test [7] stood at 0.125 µg/mL; in test [8] it was 4 µg/mL.
With `N#CCc1ccc(-c2cn(C[C@H]3CO[C@](Cn4ccnc4)(c4ccc(O)cc4F)O3)nn2)cc1` (mixture of isomers), the MIC80 amounted to 0.125 µg/mL in test [1]; 1 µg/mL in test [2]; 0.125 µg/mL in test [3]; 0.063 µg/mL in test [4]; 0.125 µg/mL in test [5]; 16 µg/mL in test [6]. The MIC80 in test [7] is 0.125 µg/mL; in test [8], 0.25 µg/mL.
`COc1ccc(-c2cn(C[C@H]3CO[C@](Cn4ccnc4)(c4ccc(O)cc4F)O3)nn2)cc1` (mixture of isomers): the MIC80 in test [1] was 0.063 µg/mL; in test [2], 0.25 µg/mL; in test [3], 0.125 µg/mL; in test [4], 0.063 µg/mL; in test [5], 0.063 µg/mL; in test [6], over 64 µg/mL. The MIC80 is 0.25 µg/mL in test [7] and 0.5 µg/mL in test [8].
